From patent US20230348362A1, “LIPID COMPOUNDS AND LIPID NANOPARTICLE COMPOSITIONS” (Suzhou Abogen Biosciences Co., Ltd., priority 2021, published 2023)
Where two headings read alike, the source gives them in different places.

Assays:
[1] = mouse, in vivo, iv, 0.5 mg/kg
Description: (§2) LNPs were injected into mice via the tail vein (ICR female, IV, 0.5 mg mRNA/kg), then mice were anesthetized under carbon dioxide at different time (e.g., 6 h, 24 h, and 48 h) after administration and sacrificed via cardiac puncture. Liver tissue were collected immediately, and then washed by ice-cold saline. Liver samples were weighed and homogenized in ice water bath by adding pre-chilled 20% methanol-water (v/v) at 2˜8° C. with the ratio of 1:5 (w/v). The homogenized tissue samples were stored in −90˜−60° C. freezer prior to analysis.
(§3) Sample Processing. All liver tissue homogenate samples were allowed to thaw at room temperature. An aliquot of 50 μL of sample was added with 50 μL MgCl2 (2M), then added with ACN which contains of Verapamil, 5 ng·mL^−1 and Glibenclamide, 50 ng·mL^−1 and Diclofenac, 200 ng·mL^1 and Tolbutamide, 200 ng·mL^1 for protein precipitation, then centrifuged at 13000 rpm for 8 min. Then 100 μL of supernatant was added with 100 μL water, then vortexed well. An aliquot of 5 μL of the mixture was injected into the LC-MS/MS system.

[2] = Encapsulation efficiency of lipid nanoparticles, Quant-it Ribogreen RNA assay; format: physicochemical; conditions: LNP of lipid/DSPC/cholesterol/PEG-lipid 50:10:38.5:1.5 encapsulating hEPO mRNA
Summary of the method: (§1)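 LNPs made from ionizable lipid/DSPC/cholesterol/PEG-lipid (50:10:38.5:1.5) and mRNA in citrate pH 4 by microfluidic mixing, lipid:mRNA about 10:1–30:1 w/w, then dialysed into DPBS and filtered. Size and PDI measured by DLS in backscatter mode; encapsulation efficiency measured by RiboGreen assay.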

[3] = Lipid nanoparticle size and polydispersity by dynamic light scattering; format: physicochemical; conditions: LNP of lipid/DSPC/cholesterol/PEG-lipid 50:10:38.5:1.5 encapsulating hEPO mRNA
Summary of the method: as §1

[4] = Lipid clearance study: lipid remaining in liver tissue by LC-MS/MS; conditions: ICR female mice, 0.5 mg/kg i.v. bolus dose mRNA
Description: as §2, §3

[5] = Apparent pKa of LNP formulations, TNS fluorescence assay; format: physicochemical; conditions: LNP cationic lipid/DSPC/cholesterol/DMG-PEG 50/10/38.5/1.5 mol %
Summary of the method: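 LNPs (cationic lipid/DSPC/cholesterol/DMG-PEG 50/10/38.5/1.5 mol %) diluted to 0.1 mg/mL total lipid in citrate/phosphate/borate/NaCl buffers spanning pH 3–9 with TNS. Fluorescence (ex 325, em 435 nm) read at room temperature; pKa taken as the pH at half-maximal intensity from sigmoidal fit.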

| SMILES | % Dose Remaining in Liver Tissue ([1]; 6 h) | % Dose Remaining in Liver Tissue ([1]; 24 h) | % Dose Remaining in Liver Tissue ([1]; 48 h) | Encapsulation Efficiency [2] | polydispersity [3] | size (nm) [3] | % Dose Remaining in Liver Tissue ([4]; 6 h) | % Dose Remaining in Liver Tissue ([4]; 24 h) | % Dose Remaining in Liver Tissue ([4]; 48 h) | Apparent Pka [5] |
| --- | --- | --- | --- | --- | --- | --- | --- | --- | --- | --- |
| CCCCCCCCCCCOC(=O)CCCCCN(CCN(CCO)CCCCCC(=O)OCC(CCCCCCCC)CCCCCCCC)C1CCCCC1 [Compound 21] | – | – | – | 92.3% | 0.042 | 81.93 nm | 94.55% | 67.66% | 24.38% | 6.361 |
| CCCCC/C=C\CCCC(CCC/C=C\CCCCC)COC(=O)CCCCCN(CCO)CCN(CCCCCC(=O)OCC(CCC/C=C\CCCCC)CCC/C=C\CCCCC)C1CCCCC1 [Compound 18] | – | – | – | 96.4% | 0.049 | 56.64 nm | – | – | – | 6.018 |
| CCCCC/C=C\CCCOC(=O)CCCCCN(CCN(CCO)CCCCCC(=O)OCC(CCCCCCCC)CCCCCCCC)C1CCCCC1 [Compound 19] | – | – | – | 90.2% | 0.046 | 80.6 nm | – | – | – | 6.269 |
| CCCCCCCCCCCOC(=O)CCCCCN(CCO)CCN(CCCCCC(=O)OCC(CCCCCCCC)CCCCCCCC)C1CCCCC1 [Compound 45] | – | – | – | 90.9% | 0.051 | 63.5 nm | – | – | – | 6.402 |
| CCCCCCCCC(CCCCCCCC)COC(=O)CCCCCN(CCO)CCN(CCCCCC(=O)OCC(CCCCCCCC)CCCCCCCC)CC1CCCC1 [Compound 35] | – | – | – | 90.0% | 0.089 | 54.18 nm | – | – | – | 5.843 |
| CCCCCCCCC(CCCCCCCC)COC(=O)CCCCCN(CCO)CCN(CCCCCC(=O)OCC(CCCCCCCC)CCCCCCCC)C1CCC(C)CC1 (centres unmarked) [Compound 40] | – | – | – | 87.1% | 0.03 | 52.06 nm | – | – | – | 5.838 |
| CCCCCCCCC(CCCCCCCC)COC(=O)CCCCCN(CCO)CCN(CCCCCC(=O)OCC(CCCCCCCC)CCCCCCCC)Cc1ccc(O)cc1 [Compound 56] | – | – | – | 92.96% | 0.174 | 57.44 nm | – | – | – | 6.702 |
| C/C=C/CN(CCCCCC(=O)OCC(CCCCCCCC)CCCCCCCC)CCN(CCO)CCCCCC(=O)OCC(CCCCCCCC)CCCCCCCC [Compound 41] | – | – | – | 88.2% | 0.067 | 55.24 nm | – | – | – | 6.134 |
| CCCCCCCCC(CCCCCCCC)CNC(=O)CCCCCN(CCO)CCN(CCCCCC(=O)OCC(CCCCCCCC)CCCCCCCC)C1CCCC1 [Compound 16] | – | – | – | 99.2% | 0.035 | 59.48 nm | – | – | – | 6.757 |
| CCCCCCCCC(CCCCCCCC)COC(=O)CCCCCN(CC)CCN(CCO)CCCCCC(=O)OCC(CCCCCCCC)CCCCCCCC [Compound 27] | – | – | – | 95.20% | 0.118 | 57.08 nm | – | – | – | 6.858 |

Results, then the compound that gave them:

| % Dose Remaining in Liver Tissue ([1]; 6 h) | % Dose Remaining in Liver Tissue ([1]; 24 h) | % Dose Remaining in Liver Tissue ([1]; 48 h) | Encapsulation Efficiency [2] | polydispersity [3] | size (nm) [3] | % Dose Remaining in Liver Tissue ([4]; 6 h) | % Dose Remaining in Liver Tissue ([4]; 24 h) | % Dose Remaining in Liver Tissue ([4]; 48 h) | Apparent Pka [5] | SMILES |
| --- | --- | --- | --- | --- | --- | --- | --- | --- | --- | --- |
| 69.39% | 61.63% | 52.47% | – | – | – | – | – | – | – | CCCCC/C=C\C/C=C\CCCCCCCCC(CCCCCCCC/C=C\C/C=C\CCCCC)OC(=O)CCCN(C)C [MC3, dilinoleylmethyl-4-dimethylaminobutyrate] |
| – | – | – | 83.64% | 0.135 | 87.73 nm | 22.45% | 16.39% | 14.08% | – | CCCCCCCCCCCOC(=O)CCCCCN(CCN(CCO)CCCCCOC(=O)N(CCCCCCCC)CCCCCCCC)C1CCCCC1 [Compound 99] |
| – | – | – | 92.74% | 0.05 | 67.96 nm | 48.44% | 50.42% | 50.83% | – | CCCCCCCCC(CCCCCCCC)CC(=O)NCCCCCN(CCN(CCO)CCCCCOC(=O)CC(CCCCCCCC)CCCCCCCC)C1CCCCCC1 [Compound 74] |
| – | – | – | 94.84% | 0.15 | 94.56 nm | 7.87% | 1.98% | 0.52% | – | CCCCCCCCC(CCCCCCCC)COC(=O)CCCCCN(CCCCN(CCO)CCCCC(COC(=O)CCCCCCC)COC(=O)CCCCCCC)C1CCC1 [Compound 220] |
| – | – | – | 93.64% | 0.043 | 82.04 nm | 7.38% | 1.03% | 0.17% | – | CCCCCCCCC(CCCCCCCC)CNC(=O)CCCCCN1CCC(N(CCO)CCCCC(COC(=O)CCCCCCC)COC(=O)CCCCCCC)CC1 [Compound 218] |
| – | – | – | 89.25% | 0.091 | 65.56 nm | 1.34% | 0.00% | 0.00% | 6.489 | CCCCCCCC(=O)OCC(CCCCN(CCO)CCN(CCCCC(COC(=O)CCCCCCC)COC(=O)CCCCCCC)C1CCC1)COC(=O)CCCCCCC [Compound 71] |
| – | – | – | 90.39% | 0.111 | 75.27 nm | – | – | – | 6.593 | CCCCCCCC(=O)OCC(CCCCN(CCO)CCCCN(CCCCC(COC(=O)CCCCCCC)COC(=O)CCCCCCC)C1CCCCC1)COC(=O)CCCCCCC [Compound 185] |
| – | – | – | 92.26% | 0.032 | 103.2 nm | – | – | – | 6.858 | CCCCCCCCCCCOC(=O)CCCCCN(CCN(CCO)CCCCC(COC(=O)CCCCCCC)COC(=O)CCCCCCC)C1CCCC1 [Compound 183] |
| – | – | – | 93.88% | 0.114 | 87.22 nm | – | – | – | 6.542 | CCCCCCCC(=O)OCC(CCCCN(CCO)CCCCN(CCCCC(COC(=O)CCCCCCC)COC(=O)CCCCCCC)C(C)C)COC(=O)CCCCCCC [Compound 189] |
| – | – | – | 92.0% | 0.034 | 68.28 nm | – | – | – | 6.21 | CCCCCCCCC(CCCCCCCC)CC(=O)OCCCCCN(CCO)CCN(CCCCCOC(=O)CC(CCCCCCCC)CCCCCCCC)C1CCC1 [Compound 62] |
| – | – | – | 91.82% | 0.051 | 55.27 nm | – | – | – | 6.298 | CCCCCCCCC(CCCCCCCC)COC(=O)CCCCCN(CCNc1c(NC)c(=O)c1=O)CCN(CCCCCC(=O)OCC(CCCCCCCC)CCCCCCCC)C1CCC1 [Compound 81] |
| – | – | – | 94.15% | 0.028 | 91.64 nm | – | – | – | 6.226 | CCCCCCCCOC(CCCCCN(CCO)CCN(CCCCCC(=O)OCC(CCCCCC)CCCCCCCC)C1CCC1)OCCCCCCCC (centres unmarked) [Compound 201] |
| – | – | – | 95.4% | 0.026 | 66.08 nm | – | – | – | 6.731 | CCCCCCCCC(CCCCCCCC)CC(=O)NCCCCCN(CCN(CCO)CCCCCOC(=O)CC(CCCCCCCC)CCCCCCCC)C1CCC1 [Compound 61] |
| – | – | – | 93.35% | 0.051 | 69.11 nm | – | – | – | 6.328 | CCCCCCCCCCCCCCCCCCOC(=O)CCCCCN(CCN(CCO)CCCCCC(=O)OCC(CCCCCCCC)CCCCCCCC)C1CCCCC1 [Compound 105] |
| – | – | – | 84.58% | 0.099 | 68.28 nm | – | – | – | 6.182 | CCCCCCCCC(CCCCCC)COC(=O)CCCCCN(CCO)CCN(CCCCC(COC(=O)CCCCCCC)COC(=O)CCCCCCC)C1CCCCCCC1 (centres unmarked) [Compound 144] |
